According to ChEMBL document CHEMBL1157879:
Calls of active or inactive are those of the source. No cut-off for these calls is given here.

Tests used:
[1] = target: Lysosomal alpha-glucosidase (Homo sapiens) (UniProt P10253); experiment: Activation of purified human recombinant acid alpha-glucosidase using resorufin alpha-D-glucopyranoside as substrate at 100 uM after 45 mins relative to basal
[2] = target: Lysosomal alpha-glucosidase (Homo sapiens) (UniProt P10253); experiment: Activation of purified human recombinant acid alpha-glucosidase using 4-methylumbelliferyl-alpha-D-glucopyranoside as substrate after 45 mins relative to basal
[3] = target: T1, Alpha-galactosidase A (Homo sapiens) (UniProt P06280); experiment: Activation of purified alpha-galactosidase A using 4-methylumbelliferyl-alpha-D-galactoside as substrate after 45 mins relative to basal
T1 sequence (whole entry): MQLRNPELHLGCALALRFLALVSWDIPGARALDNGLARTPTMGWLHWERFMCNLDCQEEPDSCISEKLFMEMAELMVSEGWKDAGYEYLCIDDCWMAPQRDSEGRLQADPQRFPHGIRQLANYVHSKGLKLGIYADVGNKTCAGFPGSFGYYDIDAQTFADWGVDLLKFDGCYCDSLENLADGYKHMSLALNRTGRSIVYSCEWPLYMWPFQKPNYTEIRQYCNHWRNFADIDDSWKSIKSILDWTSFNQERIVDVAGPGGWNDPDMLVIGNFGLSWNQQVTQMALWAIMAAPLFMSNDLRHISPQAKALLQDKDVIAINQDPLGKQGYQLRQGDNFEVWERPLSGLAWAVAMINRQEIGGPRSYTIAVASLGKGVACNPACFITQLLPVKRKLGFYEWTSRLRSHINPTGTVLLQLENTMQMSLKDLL

[4] = target: Lysosomal alpha-glucosidase (Homo sapiens) (UniProt P10253); experiment: Activation of purified human recombinant acid alpha-glucosidase using glycogen as substrate up to 100 uM after 45 mins
[5] = target: Lysosomal alpha-glucosidase (Homo sapiens) (UniProt P10253); experiment: Activation of purified acid alpha-glucosidase in human spleen homogenates using resorufin alpha-D-glucopyranoside as substrate after 45 mins relative to basal
[6] = target: Lysosomal alpha-glucosidase (Homo sapiens) (UniProt P10253); experiment: Activation of purified acid alpha-glucosidase in human spleen homogenates using resorufin alpha-D-glucopyranoside as substrate at 10 uM after 45 mins relative to basal
[7] = target: Lysosomal alpha-glucosidase (Homo sapiens) (UniProt P10253); experiment: Activation of purified acid alpha-glucosidase in human spleen homogenates using 4-methylumbelliferyl-alpha-D-glucopyranoside as substrate after 45 mins relative to basal
[8] = target: Lysosomal alpha-glucosidase (Homo sapiens) (UniProt P10253); experiment: Activation of purified human recombinant acid alpha-glucosidase using resorufin alpha-D-glucopyranoside as substrate after 45 mins relative to basal

Row | Compound | Activity [1] | further results
1 | CCCN1CNc2c(c(=O)[nH]c(=S)n2CCc2cccc(Cl)c2)C1 | 197% | 
2 | COc1ccc(C#Cc2cnc(Cl)c3cncnc23)cc1OC | inactive | 
3 | CCCN1CNc2c(c(=O)[nH]c(=S)n2CCc2cc(C)cc(C)c2)C1 | 218% | 
4 | CCCN1CNc2c(c(=O)[nH]c(=S)n2CC(C)(C)C)C1 | inactive | 
5 | CCCN1CNc2c(c(=O)[nH]c(=S)n2CC(C)C)C1 | inactive | 
6 | COc1ccc(CCn2c3c(c(=O)[nH]c2=O)C(NC(=O)c2cccs2)(C(F)(F)F)C(=O)N3)cc1OC (stereo unspecified) | 64.2% | 
7 | CCCN1CNc2c(c(=O)[nH]c(=S)n2CCC)C1 | inactive | 
8 | COc1ccc(CCn2c3c(c(=O)[nH]c2=S)CN(C(C)C)CN3)cc1OC | 234% | Activity [2]: Dose-dependent effect; Activity [3]: inactive
9 | COc1ccc(CCn2c3c(c(=O)[nH]c2=S)CN(CC(C)C)CN3)cc1OC | 338% | Activity [4]: inactive
10 | CCCN1CNc2c(c(=O)[nH]c(=S)n2CCc2ccccc2Cl)C1 | 311% | 
11 | CCCN1CNc2c(c(=O)[nH]c(=S)n2CCc2ccc(OC)c(OC)c2)C1 | 356% | Activity [5]: Dose-dependent effect; fold change (FC) [6]: 1.5; Activity [7]: Dose-dependent effect; Activity [2]: Dose-dependent effect; Activity [3]: inactive; Activity [8]: Dose-dependent effect; Activity [4]: inactive
12 | COc1ccc(C(=O)NC2(C(F)(F)F)C(=O)Nc3c2c(=O)[nH]c(=O)n3CCc2ccc(OC)c(OC)c2)cc1 (stereo unspecified) | 121% | 
13 | CCCN1CNc2c(c(=O)[nH]c(=S)n2CCc2cccc(C)c2C)C1 | 300% | 
14 | COc1ccc(C#Cc2c[nH]c(=O)c3cncnc23)cc1OC | inactive | 
15 | CCCN1CNc2c(c(=O)[nH]c(=S)n2CCc2ccc(C)cc2C)C1 | 323% | 
16 | CCCN1CNc2c(c(=O)[nH]c(=O)n2CCc2ccc(OC)c(OC)c2)C1 | 297% | 
17 | CCCN1CNc2c(c(=O)[nH]c(=S)n2CCc2ccccc2C)C1 | 136% | 
18 | CCCN1CNc2c(c(=O)[nH]c(=S)n2CCc2ccsc2)C1 | 192% | 
19 | COc1ccc(CCn2c(=S)[nH]c(=O)c3nccnc32)cc1OC | inactive | 

Row | Compound | Activity [1] | further results
20 | CCCCn1c(N)c(NCC)c(=O)[nH]c1=O | inactive | 
21 | CCCN1CNc2c(c(=O)[nH]c(=S)n2CCc2ccc(OC)cc2)C1 | 309% | 
22 | CCCN1CNc2c(c(=O)[nH]c(=S)n2CCc2ccc(C)c(C)c2)C1 | 338% | 
23 | CCCN1CNc2c(c(=O)[nH]c(=S)n2CCc2cc(OC)cc(OC)c2)C1 | 332% | 
24 | CCCN1CNc2c(c(=O)[nH]c(=S)n2CCCc2ccccc2)C1 | 166% | 
25 | COc1ccc(CCn2c3c(c(=O)[nH]c2=S)CN(c2ccccc2)CN3)cc1OC | 275% | 
26 | CCCN1CNc2c(c(=O)[nH]c(=S)n2CCc2cc(Cl)ccc2Cl)C1 | 325% | 
27 | CCCN1CNc2c(c(=O)[nH]c(=S)n2CCc2ccccc2)C1 | 142% | 
28 | CCCN1CNc2c(c(=O)[nH]c(=S)n2CCc2ccccn2)C1 | 30.6% | 
29 | CCCN1CNc2c(c(=O)[nH]c(=S)n2CCc2cccc(Cl)c2Cl)C1 | 346% | Activity [2]: Dose-dependent effect; Activity [3]: inactive; Activity [4]: inactive
30 | COc1ccc(CCn2c3c(c(=O)[nH]c2=S)CN(Cc2ccccc2)CN3)cc1OC | 335% | 
31 | COc1ccc(CCn2c(=S)[nH]c(=O)c3c(C)cc(C)nc32)cc1OC | inactive | 
32 | CCCN1CNc2c(c(=O)[nH]c(=S)n2CCc2c(OC)cccc2OC)C1 | 227% | 
33 | COc1ccc(CCn2c(=S)[nH]c(=O)c3nc[nH]c32)cc1OC | inactive | 
34 | CCCN1CNc2c(c(=O)[nH]c(=S)n2CCc2c(Cl)cccc2Cl)C1 | 332% | Activity [2]: Dose-dependent effect; Activity [3]: inactive; Activity [4]: inactive
35 | CCCN1CNc2c(c(=O)[nH]c(=S)n2CCc2ccccc2OC)C1 | 243% | 
36 | CCCN1CNc2c(c(=O)[nH]c(=S)n2CCc2cccc(OC)c2OC)C1 | 262% | 
37 | O=c1[nH]cc(CCc2ccccc2)c2ncncc12 | inactive | 
38 | CCCN1CNc2c(c(=O)[nH]c(=S)n2CCc2cccs2)C1 | 221% | 

Row | Compound | Activity [1] | further results
39 | CCCN1CNc2c(c(=O)[nH]c(=S)n2CCc2c(C)cccc2C)C1 | 112% | 
40 | Clc1ncc(C#Cc2ccccc2)c2ncncc12 | inactive | 
41 | CCCN1CNc2c(c(=O)[nH]c(=S)n2CCc2cccc(C)c2)C1 | 295% | 
42 | CCCN1CNc2c(c(=O)[nH]c(=S)n2CCc2ccc(Cl)cc2)C1 | 120% | 
43 | CCCN1CNc2c(c(=O)[nH]c(=S)n2CCc2ccc(Cl)cc2Cl)C1 | 321% | 
44 | O=c1[nH]cc(C#Cc2ccccc2)c2ncncc12 | inactive | 
45 | COc1ccc(CCc2c[nH]c(=O)c3cncnc23)cc1OC | inactive | 
46 | CCCN1CNc2c(c(=O)[nH]c(=S)n2CCc2ccc(OC)cc2OC)C1 | 308% | 
47 | CCCN1CNc2c(c(=O)[nH]c(=S)n2CCc2cc(OC)ccc2OC)C1 | 327% | 
48 | CCCN1CNc2c(c(=O)[nH]c(=S)n2CCc2cc(Cl)cc(Cl)c2)C1 | 316% | 
49 | CCCN1CNc2c(c(=O)[nH]c(=S)n2Cc2ccc(OCC)c(OCC)c2)C1 | 365% | Activity [2]: Dose-dependent effect; Activity [3]: inactive; Activity [4]: inactive
50 | CCCN1CNc2c(c(=O)[nH]c(=S)n2CCc2ccc(C)cc2)C1 | 300% | 
51 | CCCN1CNc2c(c(=O)[nH]c(=S)n2CCc2cccc(OC)c2)C1 | 302% | 
52 | CCCN1CNc2c(c(=O)[nH]c(=S)n2CCc2ccc3c(c2)OCCO3)C1 | 328% | 
53 | CCCN1CNc2c(c(=O)[nH]c(=S)n2CCc2ccc(Cl)c(Cl)c2)C1 | 88.8% | 
54 | CCCN1CNc2c(c(=O)[nH]c(=S)n2CCc2cc(C)ccc2C)C1 | 245% | 
55 | COc1ccc(CCn2c3c(c(=O)[nH]c2=S)CN(C)CN3)cc1OC | 282% | 
56 | CCCN1CNc2c(c(=O)[nH]c(=S)n2CCc2ccc(OCC)c(OCC)c2)C1 | 306% | 
57 | COc1ccc(CCn2c(N)cc(=O)[nH]c2=S)cc1OC | 32.1% | 
